Data from US11083726B2, “Methods and compositions for treating vasomotor symptoms” (UNIVERSITY OF WASHINGTON THROUGH ITS CENTER FOR …, priority 2012, dated 2021).

Test system: LH secretion
Assay: LH secretion in ovariectomized mice after i.p. injection of a PRKA (serum LH by radioimmunoassay)
Type: in vivo
Method: Female mice (000664 C57BL/6J) were obtained from The Jackson Laboratory (Sacramento, Calif., USA) at 8 weeks of age. All animals were housed on a 12:12-h light-dark cycle (lights off at 1800) with food and water available ad libitum. All experiments were conducted in accordance with the National Institutes of Health (NIH) Animal Care and Use Guidelines and with approval of the Animal Care and Use Committee of the University of Washington.
Mice were ovariectomized 13 days prior to the experiment, which occurred at approximately 11 weeks of age. Mice were anesthetized with isoflurane and bilaterally ovariectomized (OVX). Briefly, the animal's ventral skin was shaved and cleaned, and small incisions were made in the skin and abdominal musculature. The gonads were identified and excised, the abdominal muscle was sutured, and the skin incision was closed with surgical clips.
Mice were injected i.p. (<500 μl) with vehicle [0.9% sterile saline (Hospira, Lake Forest, Ill., USA) with 3.6% sterile DMSO (Sigma Aldrich, Inc., St. Louis, Mo., USA), n=7] or the following doses of the PRKA, ICI204,448 hydrochloride (Tocris Bioscience, Bristol, UK), diluted in sterile saline/DMSO: 0.1 mg/kg (0.018% DMSO, n=6), 1 mg/kg (0.18% DMSO, n=4), 10 mg/kg (1.8% DMSO, n=5), or 20 mg/kg (3.6% DMSO, n=7). N.B. 1 mg/kg and 10 mg/kg groups run in different experiment/assay. […]

CN(C(=O)Cc1ccc(Cl)c(Cl)c1)C(CN1CCCC1)c1cccc(OCC(=O)O)c1.Cl (racemic) [ICI 204,448 hydrochloride, (RS)-[3-[1-[[(3,4-Dichlorophenyl)acetyl]methylamino]-2-(1-pyrrolidinyl)ethyl]phenoxy]acetic acid hydrochloride]
LH secretion (FIG. 2) (mice, 0.1, 1, 10, 20 mg/kg i.p., 1 mg/kg and 10 mg/kg in different experiment/assay): dose-dependent decrease | LH post injection (ovariectomized mice, High Dose 20 mg/kg i.p., 20 minutes after injection, vs. Low Dose 0.1 mg/kg (P<0.01) and Vehicle (P<0.001)): significantly decreased
